Measured values taken from patent US20110288154A1, “RNA Interference Mediated Inhibition of Epithelial Sodium Channel (ENaC) Gene Expression Using Short Interfering Nucleic Acid (siNA)” (MERCK & CO., INC., priority 2008, published 2011).
[invAb] = inverted abasic (deoxyabasic) cap; m = 2'-O-methyl; r = 2'-OH (RNA); f = 2'-fluoro

Tests used:
mSCNN1A mRNA = assay: Screening of ENaCα siNAs in mouse NIH 3T3 cells (quantitative RT-PCR); type: cell-based; parameters: Percent Reduction of the mSCNN1A mRNA relative to a non-targeting control siNA / Mouse % KD (efficacy of ENaCα mRNA knockdown): concentration or dose not given beside the values; details: mouse NIH 3T3 cells, n = 3; for Mean (mSCNN1A expression normalized to the level of m36B4) / Percent Reduction of the mSCNN1A mRNA relative to a non-targeting control siNA / Avg 36B4 Expression: 24 hours post-transfection; for Avg ENaCα Expression (mSCNN1A): harvested 24 hours post-transfection; for Avg 36B4 Expression: housekeeping gene used for normalisation
Protocol: siNA constructs (Table 1b) may be tested for efficacy in reducing ENaC RNA expression in, for example, A549 human lung carcinoma cells. A549 (human; ATCC cat# CCL-185) cells were cultured at 37° C. in the presence of 5% CO2 and grown in Ham's F12K medium with 2 mM L-glutamine adjusted to contain 1.5 g/L sodium bicarbonate and supplemented with fetal bovine serum at a final concentration of 10% and 100 U/mL penicillin. The A549 cells were plated approximately 24 hours before transfection in 96-well plates at 7,500 cells/well, 100 μl/well. After 24 hours complexes containing siNA and Lipofectamine 2000 (Invitrogen) were created as follows: a solution of Lipofectamine 2000 in OPTI-MEM was prepared containing Lipofectamine 2000 at a final concentration of 14 μg/ml. In parallel, solutions of the siNAs were prepared in OPTI-MEM at a final concentration of 150 nM. After both solutions were incubated at 20° C. for 20 minutes an equal volume of the siNA solutions and the Lipofectamine 2000 solution were added together for each of the siNAs. The resultant solution has the siNAs at a final concentration of 75 nM and Lipofectamine 2000 at a final concentration of 7 μg/ml. This solution was incubated at 20° C. for 20 minutes. After incubation 50 μl of the solution were added to each of the wells (in triplicate). The final concentration of siNA in each well was 25 nM and the final concentration of Lipofectamine 2000 in each well was 2.33 μg/ml. The plates were incubated for 48 hours with no change of media before harvesting. Dose response curves were determined in a similar manner with each concentration being done in triplicate and maintaining a constant amount of Lipofectamine 2000 in each transfection.
(§1) A series of probes and primers were used to detect the various mRNA transcripts of the genes of ENaCa and GAPDH in mouse, rat, and human cell lines. The assays were performed on an ABI 7500 instrument, according to the manufacturer's instructions. Within each experiment, the baseline was set in the exponential phase of the amplification curve, and based on the intersection point of the baselines with the amplification curve, a Ct value was assigned by the instrument. This Ct value was then assigned a QTY value based on the Standard Curve. The standard curve in the various experiments herein used 1 ng to 300 ng of RNA extracted from the same cell line used for the experimental transfections.
(§2) All IC50 values were calculated from the data using GraphPad Prizm software, specifically a sigmoidal, variable slope curve for simple ligand binding. Also, unless otherwise indicated, all calculations of the efficacy and potency (e.g., % knockdown) of the siNAs were done relative to a non-targeting control siNA. If reported, P-values were computed using The Students t-test, including the Welch Correction for unequal variances.
(§3) In all of the calculations of the % knock-down of mRNA, the calculation was made relative to the normalized level of expression of the gene of interest in the samples treated with the non-targeting control (NTC) unless otherwise indicated. The gene of interest expression level was divided by the level of expression of GAPDH or 36B4 (depending on the species) in each sample. The three replicates for each condition in each experiment were averaged and the standard deviation of those samples was calculated. The following formula was then used to calculate the % of knock-down of the gene of interest:
(§4) The ENaCα siNAs were designed and synthesized as described previously. The siNAs were screened in three cell lines. Human A549 cells, mouse NIH 3T3 and Rat H-4-II-E cells. The data from the screen of ENaCa siNAs in all three species is shown in Tables 3a, 3b, 4a, 4b, 5a, and 5b and a summary of the data for certain siNA molecules is presented in Table 6. Each screen was performed at 24 hrs. The decision to use this time point was based upon the degree of knockdown of the mRNA seen at that time point.

rSCNN1A (r ENaCα) mRNA = assay: Screening of ENaCα siNAs in Rat H-4-II-E cells (quantitative RT-PCR); type: cell-based; parameters: Percent Reduction of the r ENaCα mRNA relative to a non-targeting control siNA (NTCs) / Rat % KD (efficacy of ENaCα mRNA knockdown): concentration or dose not given beside the values; details: Rat H-4-II-E cells, n = 3; for Mean (rSCNN1A expression normalized to the level of rGAPDH) / Percent Reduction of the r ENaCα mRNA relative to a non-targeting control siNA (NTCs) / Avg GAPDH Expression (rGAPDH): 24 hours post-transfection; for Avg ENaCα Expression (rSCNN1A): harvested 24 hours post-transfection; for Avg GAPDH Expression (rGAPDH): housekeeping gene used for normalisation
Protocol: as §1, §2, §3, §4

| Substance | Mean (mSCNN1A expression normalized to the level of m36B4) (mSCNN1A mRNA) | Percent Reduction of the mSCNN1A mRNA relative to a non-targeting control siNA (mSCNN1A mRNA) [%] | Avg ENaCα Expression (mSCNN1A) (mSCNN1A mRNA) | Avg 36B4 Expression (mSCNN1A mRNA) | Mean (rSCNN1A expression normalized to the level of rGAPDH) (rSCNN1A (r ENaCα) mRNA) | Percent Reduction of the r ENaCα mRNA relative to a non-targeting control siNA (NTCs) (rSCNN1A (r ENaCα) mRNA) [%] | Avg ENaCα Expression (rSCNN1A) (rSCNN1A (r ENaCα) mRNA) | Avg GAPDH Expression (rGAPDH) (rSCNN1A (r ENaCα) mRNA) |
| --- | --- | --- | --- | --- | --- | --- | --- | --- |
| B GGcAGccAGuGGAGccuGu TTB / ACAGGcuccAcuGGcuGccUU (sense GGCAGCCAGUGGAGCCUGUTT; antisense ACAGGCUCCACUGGCUGCCUU; siRNA; sense: DNA at AGT, 2'-fluoro at CU, [invAb] at 5' end, 3' end, backbone not given here; antisense: sugars from the 5' end rrrmmffffmffmmffmffmm, backbone not given here) [Site 1753] | 0.12 | 9.6 | 3.13 | 25.27 | 0.59 | 35.4 | 24.59 | 41.36 |
| B GcAuGAAGAcGGccuucuG TTB / CAGAAGGccGuCuucAuGcUU (chain 1 GCAUGAAGACGGCCUUCUGTT; chain 2 CAGAAGGCCGUCUUCAUGCUU; siRNA; chain 1: DNA at AGT, 2'-fluoro at CU, [invAb] at 5' end, 3' end, backbone not given here; chain 2: sugars from the 5' end rrrmmmmffmfmfffmfmfmm, backbone not given here) [Site 341] | 0.23 | 3.9 | 3.17 | 13.56 | 1.05 | 18.4 | 19.10 | 18.30 |
| B GccAGuGGAGccuGuGGuu TTB / AACcAcAGGcuccAcuGGcUU (sense GCCAGUGGAGCCUGUGGUUTT; antisense AACCACAGGCUCCACUGGCUU; siRNA; sense: DNA at AGT, 2'-fluoro at CU, [invAb] at 5' end, 3' end, backbone not given here; antisense: sugars from the 5' end rrrfmfmmmffffmffmmfmm, backbone not given here) [Site 1757] | 0.11 | 22.2 | 2.58 | 24.24 | 0.72 | 21.5 | 29.36 | 40.49 |
| B AccGcAuGAAGAcGGccuu TTB / AAGGccGucuucAuGcGGuUU (chain 1 ACCGCAUGAAGACGGCCUUTT; chain 2 AAGGCCGUCUUCAUGCGGUUU; siRNA; chain 1: DNA at AGT, 2'-fluoro at CU, [invAb] at 5' end, 3' end, backbone not given here; chain 2: sugars from the 5' end rrrmffmfffffmfmfmmfmm, backbone not given here) [Site 338] | 0.26 | −9.5 | 3.24 | 12.29 | 0.79 | 38.7 | 14.22 | 18.42 |
